IC50 and inhibition data for 36 compounds are collected here from ChEMBL document CHEMBL1140800, “Identification of 2-amino-5-(thioaryl)thiazoles as inhibitors of nerve growth factor receptor TrkA” (Bioorg Med Chem Lett, 2008).

Assay [1] addresses High affinity nerve growth factor receptor (Homo sapiens, UniProt P04629). The assay is described as follows: Inhibition of TrkA.
Assay [2] can be described thus: Antiproliferative activity against rat RKE cells expressing CD8-TrkA after 3 days. Particulars: 72 h. The class given is functional, cell-based.
Assay [3] can be described thus: Antiproliferative activity against TrkA deficient rat RK3E cells after 3 days. The class given is functional, cell-based. Conditions: 72 h.
Assay [4] addresses Insulin-like growth factor 1 receptor (Homo sapiens, UniProt P08069). The assay is described as follows: Inhibition of IGF1R.
The subject of another assay is SH-SY5Y. The assay is described as follows: Antiproliferative activity against human SH-SY5Y cells after 3 days. The assay is classed as functional, cell-based. Particulars: 72 h.
Assay [5] deals with Cyclin-dependent kinase 2 (Homo sapiens, UniProt P24941). The assay is described as follows: Inhibition of CDK2.
A short description of assay [6]: Inhibition of VEGFR.
The target in assay [7] is Hepatocyte growth factor receptor (Homo sapiens, UniProt P08581). Description: Inhibition of Met.
The nature of assay [8]: Inhibition of VEGFR at 2 uM.

Sequence of Hepatocyte growth factor receptor (P08581 whole entry): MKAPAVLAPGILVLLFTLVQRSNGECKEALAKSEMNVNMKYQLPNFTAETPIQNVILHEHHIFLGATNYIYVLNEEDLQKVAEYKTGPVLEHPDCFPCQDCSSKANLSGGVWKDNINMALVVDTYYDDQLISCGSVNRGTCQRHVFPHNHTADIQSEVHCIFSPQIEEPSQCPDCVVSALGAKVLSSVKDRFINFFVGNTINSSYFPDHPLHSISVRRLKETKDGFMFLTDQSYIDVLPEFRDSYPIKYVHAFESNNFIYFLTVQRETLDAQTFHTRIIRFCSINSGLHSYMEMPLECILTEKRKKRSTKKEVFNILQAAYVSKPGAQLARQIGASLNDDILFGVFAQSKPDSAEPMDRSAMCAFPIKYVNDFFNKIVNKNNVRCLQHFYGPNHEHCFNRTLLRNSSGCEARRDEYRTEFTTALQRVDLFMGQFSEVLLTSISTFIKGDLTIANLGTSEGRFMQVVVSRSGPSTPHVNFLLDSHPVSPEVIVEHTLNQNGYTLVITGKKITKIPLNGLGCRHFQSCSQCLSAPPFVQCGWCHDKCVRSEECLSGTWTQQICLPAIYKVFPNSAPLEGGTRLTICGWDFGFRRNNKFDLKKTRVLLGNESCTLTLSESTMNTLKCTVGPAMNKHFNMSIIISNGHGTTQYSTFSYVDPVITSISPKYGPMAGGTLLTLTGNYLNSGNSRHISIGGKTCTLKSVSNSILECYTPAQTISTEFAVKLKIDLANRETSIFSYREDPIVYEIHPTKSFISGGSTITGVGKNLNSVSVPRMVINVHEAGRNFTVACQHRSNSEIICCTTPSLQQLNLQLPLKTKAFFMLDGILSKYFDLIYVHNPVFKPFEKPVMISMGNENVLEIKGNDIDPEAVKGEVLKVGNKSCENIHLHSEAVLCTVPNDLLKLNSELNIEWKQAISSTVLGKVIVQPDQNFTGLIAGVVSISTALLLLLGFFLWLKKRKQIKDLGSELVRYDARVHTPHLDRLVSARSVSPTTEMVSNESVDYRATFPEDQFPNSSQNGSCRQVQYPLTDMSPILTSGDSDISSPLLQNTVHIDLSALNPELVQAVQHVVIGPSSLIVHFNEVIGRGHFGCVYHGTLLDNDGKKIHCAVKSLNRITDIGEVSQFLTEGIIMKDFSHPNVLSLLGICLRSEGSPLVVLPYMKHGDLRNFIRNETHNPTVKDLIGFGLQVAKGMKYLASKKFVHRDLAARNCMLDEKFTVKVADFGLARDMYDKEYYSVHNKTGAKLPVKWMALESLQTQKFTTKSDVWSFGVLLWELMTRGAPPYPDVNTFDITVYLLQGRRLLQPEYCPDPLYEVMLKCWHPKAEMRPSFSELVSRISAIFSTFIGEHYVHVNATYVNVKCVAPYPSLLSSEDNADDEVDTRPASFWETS
Sequence of Insulin-like growth factor 1 receptor (P08069 31-736 limits assumed): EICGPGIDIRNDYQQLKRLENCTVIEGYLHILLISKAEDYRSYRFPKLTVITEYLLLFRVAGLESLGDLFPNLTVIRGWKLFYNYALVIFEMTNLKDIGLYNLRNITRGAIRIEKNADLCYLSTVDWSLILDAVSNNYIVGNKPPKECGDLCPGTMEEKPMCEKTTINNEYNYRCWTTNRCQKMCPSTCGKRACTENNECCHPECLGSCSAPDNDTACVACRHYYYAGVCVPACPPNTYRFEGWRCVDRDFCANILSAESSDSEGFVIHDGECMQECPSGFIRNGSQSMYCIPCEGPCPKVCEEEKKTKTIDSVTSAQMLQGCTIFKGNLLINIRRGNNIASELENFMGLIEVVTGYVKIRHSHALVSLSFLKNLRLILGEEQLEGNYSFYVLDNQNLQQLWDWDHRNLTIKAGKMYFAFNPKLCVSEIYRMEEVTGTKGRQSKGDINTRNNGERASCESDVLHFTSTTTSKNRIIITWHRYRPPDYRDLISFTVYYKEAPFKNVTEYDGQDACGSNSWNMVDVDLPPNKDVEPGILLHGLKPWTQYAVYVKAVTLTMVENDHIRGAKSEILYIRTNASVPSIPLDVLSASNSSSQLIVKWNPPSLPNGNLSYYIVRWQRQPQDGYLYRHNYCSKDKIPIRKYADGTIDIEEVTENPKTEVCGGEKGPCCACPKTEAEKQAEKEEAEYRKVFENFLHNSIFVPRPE
Sequence of Insulin-like growth factor 1 receptor (P08069 741-1367 limits assumed): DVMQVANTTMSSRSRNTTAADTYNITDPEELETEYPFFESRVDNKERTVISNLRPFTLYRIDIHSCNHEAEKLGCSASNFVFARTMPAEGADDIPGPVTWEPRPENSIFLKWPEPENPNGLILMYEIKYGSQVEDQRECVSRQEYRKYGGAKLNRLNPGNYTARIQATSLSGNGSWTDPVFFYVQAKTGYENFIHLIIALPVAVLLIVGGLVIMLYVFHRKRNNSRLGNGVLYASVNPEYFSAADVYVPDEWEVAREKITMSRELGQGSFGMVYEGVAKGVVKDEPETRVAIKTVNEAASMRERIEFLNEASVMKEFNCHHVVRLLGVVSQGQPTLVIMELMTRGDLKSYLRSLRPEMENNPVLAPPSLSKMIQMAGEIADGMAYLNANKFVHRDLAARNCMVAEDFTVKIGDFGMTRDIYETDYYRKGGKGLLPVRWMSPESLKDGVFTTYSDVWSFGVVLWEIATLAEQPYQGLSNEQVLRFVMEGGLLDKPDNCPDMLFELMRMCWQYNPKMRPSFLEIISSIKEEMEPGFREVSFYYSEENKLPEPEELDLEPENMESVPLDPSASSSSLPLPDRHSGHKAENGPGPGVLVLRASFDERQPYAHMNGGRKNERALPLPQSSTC
Sequence of High affinity nerve growth factor receptor (P04629 whole entry): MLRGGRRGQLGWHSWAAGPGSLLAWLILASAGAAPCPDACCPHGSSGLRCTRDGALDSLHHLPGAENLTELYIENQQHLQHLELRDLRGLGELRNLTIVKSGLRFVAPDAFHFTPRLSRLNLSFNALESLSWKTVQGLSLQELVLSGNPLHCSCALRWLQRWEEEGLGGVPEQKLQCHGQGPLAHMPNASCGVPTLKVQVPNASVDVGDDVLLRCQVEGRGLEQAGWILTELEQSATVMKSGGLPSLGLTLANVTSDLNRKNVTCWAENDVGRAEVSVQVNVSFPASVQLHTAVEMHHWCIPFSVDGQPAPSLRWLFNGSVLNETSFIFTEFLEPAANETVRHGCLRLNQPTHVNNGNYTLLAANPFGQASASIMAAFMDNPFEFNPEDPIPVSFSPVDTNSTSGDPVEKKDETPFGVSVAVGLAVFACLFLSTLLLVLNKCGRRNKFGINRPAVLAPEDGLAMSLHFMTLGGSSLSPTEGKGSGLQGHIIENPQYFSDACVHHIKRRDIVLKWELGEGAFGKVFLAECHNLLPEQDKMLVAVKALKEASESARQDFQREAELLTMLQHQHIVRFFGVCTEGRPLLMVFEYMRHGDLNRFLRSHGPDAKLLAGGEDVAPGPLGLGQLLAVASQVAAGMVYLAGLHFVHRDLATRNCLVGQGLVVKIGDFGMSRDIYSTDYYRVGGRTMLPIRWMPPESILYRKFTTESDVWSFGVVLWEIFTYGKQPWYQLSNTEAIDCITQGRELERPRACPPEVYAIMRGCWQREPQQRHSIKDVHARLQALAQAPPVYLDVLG

Regarding `C#CCNC(=O)c1cc(Sc2cnc(Nc3ccccn3)s2)ccc1C`, half-maximal inhibition in assay [1] (IC50) was put at 1.2 µM.
Still for that read-out and setting: under `Cc1ccc(Sc2cnc(Nc3ccccn3)s2)cc1C(=O)NCc1ccccc1` stands more than 5 µM; under `CCN1CCN(C(=O)c2cc(Sc3cnc(Nc4cccc(Br)n4)s3)ccc2C)CC1`, 0.23 µM; under `CC(=O)N1CCN(C(=O)c2cc(Sc3cnc(N)s3)ccc2C)CC1`, more than 5 µM.
Still for that read-out and setting: the result for `CCC(=O)N1CCN(C(=O)c2cc(Sc3cnc(Nc4cccc(Br)n4)s3)ccc2C)CC1` reads 0.021 µM; that for `CC(=O)N1CCN(C(=O)c2cccc(Sc3cnc(Nc4cccc(Br)n4)s3)c2)CC1`, 0.05 µM.
On the same count and under the same terms, under `CC(=O)N1CCN(C(=O)c2cccc(Sc3cnc(Nc4cccc(C)n4)s3)c2)CC1` stands 1.1 µM; under `CC(=O)N1CCN(C(=O)c2cc(Sc3cnc(Nc4ccccn4)s3)ccc2C)CC1`, 0.08 µM.
Take `CC(=O)N1CCN(C(=O)c2cc(Sc3cnc(Nc4cccc(Br)n4)s3)ccc2C)CC1`: the IC50 in assay [2] was 0.25 µM; in assay [3], 2.28 µM; in assay [1] it was 0.001 µM; in [4] it was more than 1 µM; in the assay on SH-SY5Y, 1.14 µM; in assay [5] it was 0.49 µM. Besides, the half-inhibitory concentration (IC50) in assay [6] was more than 25 µM; in assay [7] it was more than 1 µM.
The compound `Cc1ccc(Sc2cnc(Nc3cccc(Br)n3)s2)cc1C(=O)N1CCN(CC(N)=O)CC1` returned an IC50 in assay [1] of 0.15 µM.
In assay [1], `CC(=O)N1CCN(C(=O)c2ccc(Sc3cnc(Nc4cccc(Br)n4)s3)cc2)CC1` registered an IC50 of 1.3 µM.
For the compound `CC(=O)N1CCCN(C(=O)c2cc(Sc3cnc(Nc4ccccn4)s3)ccc2C)CC1`, the IC50 in assay [1] was 1.1 µM. The IC50 values of the last two compounds are within 1.5-fold of each other.
On to `Cc1ccc(Sc2cnc(Nc3cccc(Br)n3)s2)cc1C(=O)N1CCN(C(=O)[C@@H](C)N)CC1`, for which the IC50 came to 0.23 µM in assay [2]; 3.61 µM in assay [3]; 0.001 µM in assay [1]; 0.7 µM in assay [4]; 1.78 µM in the assay on SH-SY5Y; 0.23 µM in assay [5]. Further, in [7], it took 0.17 µM to reach half-maximal inhibition (IC50).
In the case of `Cc1ccc(Sc2cnc(Nc3ccccn3)s2)cc1C(=O)N1CCNCC1`, it took 0.16 µM to reach half-maximal inhibition in assay [1] (IC50).
For the compound `Cc1ccc(Sc2cnc(Nc3ccccn3)s2)cc1C(=O)NCCC#N`, the IC50 in [1] is 0.065 µM. This IC50 lies about 2.5-fold lower than the previous one.
Regarding `Cc1ccc(Sc2cnc(Nc3cccc(Br)n3)s2)cc1C(=O)N(C)CCC#N`, the IC50 came to 0.37 µM in assay [2], 3.32 µM in assay [3], 0.01 µM in assay [1] and 1.17 µM in the assay with SH-SY5Y.
On to `CC(=O)N1CCN(C(=O)c2cccc(Sc3cnc(Nc4ccccn4)s3)c2)CC1`, for which 0.24 µM corresponded to half-maximal inhibition in [1] (IC50). This counts as sub-micromolar.
On the same count and under the same terms, the result for `Cc1ccc(Sc2cnc(Nc3ccccn3)s2)cc1C(=O)NCCO` reads 0.76 µM; that for `CC(=O)N1CCN(C(=O)c2ccccc2Sc2cnc(Nc3cccc(Br)n3)s2)CC1`, 1.9 µM.
`CNCCN(C)C(=O)c1cc(Sc2cnc(Nc3cccc(Br)n3)s2)ccc1C`: the IC50 in assay [2] was 0.46 µM; in assay [3] it was 3.06 µM; in assay [1], 0.031 µM; in [4] it was more than 1 µM; in the assay with SH-SY5Y, 1.66 µM; in [5], 0.18 µM. For the same compound, the half-inhibitory concentration (IC50) in [7] is more than 1 µM. Further, the inhibition in assay [8] worked out at 8%.
The compound `CC(=O)N1CCN(C(=O)c2cccc(Sc3cnc(Nc4ccc(Br)cn4)s3)c2)CC1` registered an IC50 in assay [1] of 0.52 µM.
Same read-out and setting: under `Cc1ccc(Sc2cnc(Nc3ccccn3)s2)cc1C(N)=O` stands 0.79 µM; under `Cc1ccc(Sc2cnc(Nc3ccccn3)s2)cc1C(=O)N1CCN(S(C)(=O)=O)CC1`, 0.91 µM; under `CNCCNC(=O)c1cc(Sc2cnc(Nc3ccccn3)s2)ccc1C`, 0.19 µM.
As for `Cc1ccc(Sc2cnc(Nc3cccc(Br)n3)s2)cc1C(=O)N1CCN(C(=O)CN)CC1`, the IC50 in assay [2] is 0.55 µM; in [3] it was 4.08 µM; in assay [1], 0.0006 µM; in [4] it was more than 1 µM; in the assay with SH-SY5Y, 3.06 µM; in assay [5], 0.54 µM. In [7], this compound gave an IC50 of 0.43 µM.
For the compound `CC(=O)Nc1ncc(Sc2ccc(C)c(C(=O)N3CCN(C(C)=O)CC3)c2)s1`, the IC50 in assay [1] is more than 5 µM.
`Cc1ccc(Sc2cnc(Nc3ccccn3)s2)cc1C(=O)NCC#N` gave an IC50 in assay [1] of 0.044 µM.
Same read-out and setting: under `Cc1ccc(Sc2cnc(Nc3ccccn3)s2)cc1NC(=O)CC#N` stands 0.06 µM.
With `Cc1ccc(Sc2cnc(Nc3cccc(Br)n3)s2)cc1C(=O)N(C)CC#N`, the IC50 in assay [2] was 0.39 µM; in [3], 3 µM; in [1], 0.002 µM; in the assay with SH-SY5Y, 0.75 µM.
The matching figures for `CCNC(=O)c1cc(Sc2cnc(Nc3ccccn3)s2)ccc1C`: more than 10 µM, more than 10 µM, more than 5 µM and more than 10 µM.
The compound `Cc1ccc(Sc2cnc(Nc3ccccn3)s2)cc1C(=O)NC(C)C` returned an IC50 in assay [1] of 2 µM.
Same read-out and setting: the result for `CC(=O)NCCNC(=O)c1cc(Sc2cnc(Nc3ccccn3)s2)ccc1C` reads 0.32 µM.
`Cc1ccc(Sc2cnc(Nc3cccc(Br)n3)s2)cc1C(=O)N1CCN(C(=O)[C@H](C)N)CC1`: the IC50 in assay [2] was 1.15 µM; in [3] it was 3.52 µM; in assay [1] it was 0.001 µM; in assay [4] it was 0.36 µM; in the assay on SH-SY5Y it was 4.26 µM; in [5], 0.52 µM. The same compound showed an IC50 in assay [7] of more than 1 µM.
Compound `COC(=O)N1CCN(C(=O)c2cc(Sc3cnc(Nc4ccccn4)s3)ccc2C)CC1` gave an IC50 in [1] of 0.21 µM.
`Cc1ccc(Sc2cnc(Nc3cccc(Br)n3)s2)cc1C(=O)NCCC#N`: the IC50 in assay [1] was 0.067 µM.
Still for that read-out and setting: under `CC(=O)N1CCN(Cc2cc(Sc3cnc(Nc4ccccn4)s3)ccc2C)CC1` stands 0.72 µM.
